This test has as its target T1, human ferroportin (Homo sapiens, UniProt Q9NP59).
T1 construct: expressed in transfected cells
T1 sequence (Q9NP59 1-571): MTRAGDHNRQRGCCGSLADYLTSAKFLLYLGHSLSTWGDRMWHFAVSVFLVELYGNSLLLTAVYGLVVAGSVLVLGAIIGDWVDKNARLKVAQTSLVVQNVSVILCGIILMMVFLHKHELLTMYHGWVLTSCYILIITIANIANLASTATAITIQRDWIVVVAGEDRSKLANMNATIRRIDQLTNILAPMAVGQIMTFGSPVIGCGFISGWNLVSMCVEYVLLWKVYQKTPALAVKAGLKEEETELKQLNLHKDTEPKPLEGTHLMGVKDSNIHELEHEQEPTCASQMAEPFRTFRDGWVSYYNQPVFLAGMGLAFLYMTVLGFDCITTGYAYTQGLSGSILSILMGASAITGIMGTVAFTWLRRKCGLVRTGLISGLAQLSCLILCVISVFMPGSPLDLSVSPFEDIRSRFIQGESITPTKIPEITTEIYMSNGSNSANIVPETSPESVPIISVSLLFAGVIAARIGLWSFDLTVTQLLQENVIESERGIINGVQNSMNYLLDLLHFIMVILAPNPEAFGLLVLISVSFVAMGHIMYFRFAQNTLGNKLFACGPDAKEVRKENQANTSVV
As to the kind of experiment: ferroportin internalization assay (inhibition of hepcidin-induced internalization of Fpn). The test is classed as cell-based. Particulars: MDCK-FPN-HaloTag cells, 100 nM hepcidin, overnight incubation; concentration range from 0.04 to 40 μM. As to the method: The hepcidin-antagonistic action of the sulfonaminoquinoline compounds of the present invention was determined by means of the “ferroportin internalization assay” described in the following.
Organic compounds of low molecular weight which counteract the biological actions of hepcidin on its receptor, the iron exporter ferroportin (Fpn), were identified on the basis of their ability to inhibit hepcidin-induced internalization of Fpn in living cells. For this purpose, a stable cell line (Madin-Darby canine kidney, MDCK) was produced which constitutively expresses human ferroportin fused recombinantly at its C terminus with a fluorescent reporter protein (HaloTag®, Promega Corp.). The internalization of Fpn was monitored by labelling these cells with fluorescent ligands (HaloTag®-TMR, tetramethylrhodamine) which join covalently on to the HaloTag reporter gene fused with the Fpn. […] Optimized image analysis algorithms were used to ascertain the cell surface and to quantify the corresponding membrane fluorescence associated with the Fpn-HaloTag fusion protein. This assay allows a quantitative image-based analysis in order to quickly evaluate compounds which can block hepcidin-induced internalization of Fpn. This assay is a direct in vitro pendant of the in vivo action mechanism proposed for medicament candidates and is therefore suitable as an initial assay with a high throughput for identifying compounds which counteract the action of hepcidin on its receptor ferroportin.
• 7,500 cells per well (MDCK-FPN-HaloTag) were transinoculated in 50 μl of DMEM medium (Dulbeccos Modified Eagle Medium with 10% foetal bovine serum (FBS), which contained 1% penicillin, 1% streptomycin and 450 μg/ml of G-418) in microtitre plates with 384 wells (384 Cell carrier plates, Perkin Elmer, cat. no. 6007430), followed by incubation overnight at 37° C./5% CO2. • The volume of the medium was reduced to 10 μl, and 10 μl of 5 μM HaloTag-TMR ligands (Promega, cat. no. G 8251) were added in DMEM medium in order to stain the Fpn-HaloTag fusion protein. • 15 min incubation at 37° C./5% CO2 • The HaloTag-TMR ligand was removed and the cells were washed with fresh DMEM medium and the volume was reduced to 20 μl of DMEM medium. • 3 μl per well of a solution of the test compound (dissolved DMSO) were added ([…]). • 7 μl of […] hepcidin (Peptides International, cat. no. PLP-4392-s, 100 μM stock solution diluted in water in DMEM medium) were added per well up to a final hepcidin concentration of 100 nM. • The cells were incubated overnight at 37° C./5% CO2. • The cells were fixed by adding paraformaldehyde (PFA, Electron Microscopy Sciences, cat. no. 15710-S) directly to the cells up to a final concentration of 4%, followed by incubation at room temperature for 15-20 minutes. • The PFA solution was removed and the cells were washed with PBS (phosphate-buffered saline solution), in each case 30 μl remaining in the plate. • 20 μl of Draq5 (Biostatus, cat. no. DR 51000) were added up to a final concentration of 2.5 μM in order to stain the cell nuclei, and the plates were sealed with a foil plate seal. • The plates were analysed with the Opera Plate Imager (Opera Confocal Plate Imager, Perkin Elmer) with 7 images per well; 440 ms exposure time per image, […] focal point height.

A word on the IC50: it is the point on the concentration scale where inhibition reaches its midpoint. High values mean lower potency, low ones higher potency. In the case of `COc1cc(NS(=O)(=O)c2ccc(Cl)cc2F)c2ncccc2c1` [Example 57, 4-Chloro-2-fluoro-N-(6-methoxy-quinolin-8-yl)-benzenesulfonamide], the half-inhibitory concentration (IC50) came to 1750 nM.
The result for `COc1cc(NS(=O)(=O)c2cccnc2)c2ncccc2c1` [Example 59, Pyridine-3-sulfonic acid (6-methoxy-quinolin-8-yl)-amide] reads 2800 nM; that for `O=S(=O)(Nc1ccc(Cl)c2cccnc12)c1cccnc1` [Example 60, Pyridine-3-sulfonic acid (5-chloro-quinolin-8-yl)-amide], 1780 nM.
Next, `CC(C)C(=O)Nc1cc(C(F)(F)F)ccc1S(=O)(=O)Nc1cccc2cccnc12` [Example 61, N-[2-(Quinolin-8-ylsulfamoyl)-5-trifluoromethyl-phenyl]-isobutyramide]: 10000 nM.
Next, `O=S(=O)(Nc1cccc2cccnc12)c1cccc(Cl)c1F` [Example 62, 3-Chloro-2-fluoro-N-quinolin-8-yl-benzenesulfonamide]: 1710 nM.
On to `O=S(=O)(Nc1cccc2cccnc12)c1c(F)cccc1F` [Example 64, 2,6-Difluoro-N-quinolin-8-yl-benzenesulfonamide], for which half-maximal inhibition (IC50) required 1140 nM.
Next, `COc1cc(NS(=O)(=O)c2ccc(C(F)(F)F)cc2N)c2ncccc2c1` [Example 65, 2-Amino-N-(6-methoxy-quinolin-8-yl)-4-trifluoromethyl-benzenesulfonamide]: 1000 nM; `O=S(=O)(Nc1cccc2cccnc12)c1cccc(Cl)c1Cl` [Example 67, 2,3-Dichloro-N-quinolin-8-yl-benzenesulfonamide]: 7090 nM.
Turning to `Cc1c(Cl)cccc1S(=O)(=O)Nc1cccc2cccnc12` [Example 68, 3-Chloro-2-methyl-N-quinolin-8-yl-benzenesulfonamide], 4000 nM corresponded to half-maximal inhibition (IC50).
Next, `O=S(=O)(Nc1cccc2cccnc12)Oc1ccccc1` [Example 70, Quinolin-8-yl-sulfamic acid phenyl ester]: 3250 nM; `Cc1cnc2c(NS(=O)(=O)c3ccc(Cl)cc3F)cccc2c1` [Example 71, 4-Chloro-2-fluoro-N-(3-methyl-quinolin-8-yl)-benzenesulfonamide]: 1300 nM; `Cc1cnc2c(NS(=O)(=O)c3cccnc3)cccc2c1` [Example 72, Pyridine-3-sulfonic acid (3-methyl-quinolin-8-yl)-amide]: 1390 nM.
Next, `Cc1cnc2c(NS(=O)(=O)c3ccc(C(F)(F)F)cc3N)cccc2c1` [Example 73, 2-Amino-N-(3-methyl-quinolin-8-yl)-4-trifluoromethyl-benzenesulfonamide]: 3000 nM; `O=S1(=O)Nc2c(ccc3cccnc23)-c2cc(F)ccc21` [Example 74, 9-Fluoro-5H-6-thia-4,5-diaza-chrysene 6,6-dioxide]: 1560 nM; `O=S(=O)(Nc1cc(F)cc2cccnc12)c1ccccc1` [Example 75, N-(6-Fluoro-quinolin-8-yl)-benzenesulfonamide]: 780 nM.
As to `Cc1cc(NS(=O)(=O)c2ccccc2)c2ncccc2c1` [Example 77, N-(6-Methyl-quinolin-8-yl)-benzenesulfonamide], half-maximal inhibition (IC50) required 2180 nM.
The result for `O=S1(=O)Nc2c(ccc3cccnc23)-c2cc(C(F)(F)F)ccc21` [Example 78, 9-Trifluoromethyl-5H-6-thia-4,5-diaza-chrysene 6,6-dioxide] reads 130 nM; that for `Cc1ccc(S(=O)(=O)Nc2ccc(Cl)c3cccnc23)c(N)c1` [Example 79, 2-Amino-N-(5-chloro-quinolin-8-yl)-4-methyl-benzenesulfonamide], 1220 nM; that for `COc1cc(NS(=O)(=O)c2ccc(C)cc2N)c2ncccc2c1` [Example 80, 2-Amino-N-(6-methoxy-quinolin-8-yl)-4-methyl-benzenesulfonamide], 585 nM.
`O=S(=O)(Nc1cc(F)c(Cl)c2cccnc12)c1ccccc1` [Example 82, N-(5-Chloro-6-fluoro-quinolin-8-yl)-benzenesulfonamide]: it took 1500 nM to reach half-maximal inhibition (IC50).
The result for `Cc1c(F)cccc1S(=O)(=O)Nc1cccc2cccnc12` [Example 83, 3-Fluoro-2-methyl-N-quinolin-8-yl-benzenesulfonamide] reads 1500 nM; that for `O=S(=O)(Nc1cccc2cccnc12)c1ccccn1` [Example 85, Pyridine-2-sulfonic acid quinolin-8-ylamide], 1890 nM.
The result for `O=S(=O)(Nc1cccc2cccnc12)c1cnc2ccccc2c1` [Example 88, Quinoline-3-sulfonic acid quinolin-8-ylamide] reads 2060 nM; that for `O=S(=O)(Nc1cccc2cccnc12)c1ccc(C(F)(F)F)nc1` [Example 89, 6-Trifluoromethyl-pyridine-3-sulfonic acid quinolin-8-ylamide], 3690 nM.
Regarding `Cc1ccc(NS(=O)(=O)c2ccccc2)c2ncccc12` [Example 90, N-(5-Methyl-quinolin-8-yl)-benzenesulfonamide], half-maximal inhibition (IC50) required 1100 nM.
The compound `O=S(=O)(Nc1ccc(C(F)(F)F)c2cccnc12)c1ccccc1` [Example 91, N-(5-Trifluoromethyl-quinolin-8-yl)-benzenesulfonamide] displayed an IC50 of 1050 nM.
Next, `O=S(=O)(Nc1cc(OC(F)(F)F)cc2cccnc12)c1ccccc1` [Example 92, N-(6-Trifluoromethoxy-quinolin-8-yl)-benzenesulfonamide]: 9000 nM; `O=S(=O)(Nc1cc(F)cc2cccnc12)c1c(F)cccc1F` [Example 94, 2,6-Difluoro-N-(6-fluoro-quinolin-8-yl)-benzenesulfonamide]: 1000 nM; `O=S(=O)(Nc1cc(F)cc2cccnc12)c1ccc(Cl)cc1F` [Example 95, 4-Chloro-2-fluoro-N-(6-fluoro-quinolin-8-yl)-benzenesulfonamide]: 690 nM.
Next, `O=S(=O)(Nc1cc(F)cc2cccnc12)c1cccnc1` [Example 96, Pyridine-3-sulfonic acid (6-fluoro-quinolin-8-yl)-amide]: 5870 nM.
Next, `O=S(=O)(Nc1cc(F)c(F)c2cccnc12)c1ccccc1` [Example 97, N-(5,6-Difluoro-quinolin-8-yl)-benzenesulfonamide]: 8000 nM.
Compound `O=S(=O)(Nc1ccc(F)c2cccnc12)c1ccccc1` [Example 98, N-(5-Fluoro-quinolin-8-yl)-benzenesulfonamide] had an IC50 of 988 nM. This IC50 is about 8.1-fold lower than that of the compound before.
The result for `Cc1cc2c(cc1C)S(=O)(=O)Nc1c-2ccc2cccnc12` [Example 104, 8,9-Dimethyl-5H-6-thia-4,5-diaza-chrysene 6,6-dioxide] reads 4020 nM; that for `COc1ccc2c(c1)-c1ccc3cccnc3c1NS2(=O)=O` [Example 105, 9-Methoxy-5H-6-thia-4,5-diaza-chrysene 6,6-dioxide], 1580 nM; that for `Cc1cc2c(c3ncccc13)NS(=O)(=O)c1ccccc1-2` [Example 107, 12-Methyl-5H-6-thia-4,5-diaza-chrysene 6,6-dioxide], 599 nM.
`COc1cc2c(c3ncccc13)NS(=O)(=O)c1ccccc1-2` [Example 108, 12-Methoxy-5H-6-thia-4,5-diaza-chrysene 6,6-dioxide] yielded an IC50 of 990 nM.

For the origin of these results see patent publication US9102688B2, “Sulfonaminoquinoline hepcidin antagonists” (Vifor (International) AG, priority 2011, dated 2015).
